In patent publication US8314143B2, “Synthetic flavonoids and pharmaceutical compositions and therapeutic methods of treatment of HIV infection and other pathologies” (Florida A&M University, priority 2006, dated 2012):
Values joined by “and” are separate entries in the source; they are usually repeats but may differ in a detail not shown here. Identical values can stand only once. “Also recorded” adds a separate entry of the source.

What was measured:
Assay type in all cases: cell-based
H-9 cells = test: Cytoxicity on H-9 cells (drug inhibition, cell count); settings: for H-9 Mean (drug inhibition): Table 4 summary; for % Inhibition Mean / Cells (×10^4) Mean / % Inhibition / Cells (×10^4): Exp. Dec. 05 to Dec. 09, 2005; for % Inhibition / Cells (×10^4): single replicates
Text: (§1) The purified and identified analogs were subjected to in vitro biological testing. […] These three congeners were further evaluated in H9 and PC3 cells. AZT was employed as a positive control in all of these experiments.

MCF-7 cells = test: Cytoxicity on MCF-7 cells (drug inhibition, cell count); parameters: Drug Inhibition on MCF-7 Cells / MCF-7 Mean (drug inhibition) / Drug inhibition on MCF-7 Cells Mean: unit not given here; settings: MCF-7 cells; for Drug Inhibition on MCF-7 Cells: Table 8 summary
Text: as §1

PC-3 cells = test: Cytoxicity on PC-3 cells (drug inhibition, cell count); settings: for Drug Inhibition on PC-3 cells: Table 7; for % Inhibition Mean / Cells (×10^4) Mean / % Inhibition / Cells (×10^4): Exp. Nov. 11 to Nov. 17, 2005; for % Inhibition / Cells (×10^4): single replicates
Text: The purified and identified analogs were subjected to in vitro biological testing.

[1] = 1 μg/ml, mean, Exp. Nov. 14 to Nov. 18, 2005
[2] = 1 μg/ml, single replicates, Exp. Nov. 14 to Nov. 18, 2005
[3] = 5 μg/ml, mean, Exp. Nov. 14 to Nov. 18, 2005
[4] = 5 μg/ml, single replicates, Exp. Nov. 14 to Nov. 18, 2005
[5] = 10 μg/ml, mean, Exp. Nov. 14 to Nov. 18, 2005
[6] = 10 μg/ml, single replicates, Exp. Nov. 14 to Nov. 18, 2005
[7] = 50 μg/ml, mean, Exp. Nov. 14 to Nov. 18, 2005
[8] = 50 μg/ml, single replicates, Exp. Nov. 14 to Nov. 18, 2005

COc1ccc(C=CC(=O)c2cc(Cl)cc(Cl)c2O)cc1OC [CHCl 2M]
H-9 Mean (drug inhibition) (H-9 cells; 1 μg/ml): 15.92
% Inhibition Mean (H-9 cells; 1 μg/ml): 15.92%
Cells (×10^4) Mean (H-9 cells; 1 μg/ml): 42.25 ×10^4
% Inhibition (H-9 cells; 1 μg/ml): 16.42% and 15.92% and 15.42%
Cells (×10^4) (H-9 cells; 1 μg/ml): 42.0 ×10^4 and 42.3 ×10^4 and 42.6 ×10^4
H-9 Mean (drug inhibition) (H-9 cells; 5 μg/ml): 52.24
% Inhibition Mean (H-9 cells; 5 μg/ml): 52.24%
Cells (×10^4) Mean (H-9 cells; 5 μg/ml): 24.00 ×10^4
% Inhibition (H-9 cells; 5 μg/ml): 52.24% and 52.74% and 51.74%
Cells (×10^4) (H-9 cells; 5 μg/ml): 24.0 ×10^4 and 23.8 ×10^4 and 24.3 ×10^4
H-9 Mean (drug inhibition) (H-9 cells; 10 μg/ml): 74.3
% Inhibition Mean (H-9 cells; 10 μg/ml): 74.30%
Cells (×10^4) Mean (H-9 cells; 10 μg/ml): 12.92 ×10^4
% Inhibition (H-9 cells; 10 μg/ml): 74.13% and 77.11% and 71.64%
Cells (×10^4) (H-9 cells; 10 μg/ml): 13.0 ×10^4 and 11.5 ×10^4 and 14.3 ×10^4
H-9 Mean (drug inhibition) (H-9 cells; 50 μg/ml): 91.04
% Inhibition Mean (H-9 cells; 50 μg/ml): 91.04%
Cells (×10^4) Mean (H-9 cells; 50 μg/ml): 4.50 ×10^4
% Inhibition (H-9 cells; 50 μg/ml): 92.04% and 91.04% and 90.05%
Cells (×10^4) (H-9 cells; 50 μg/ml): 4.0 ×10^4 and 4.5 ×10^4 and 5.0 ×10^4
inhibitory activity compared to AZT (H-9 cells; same conditions as AZT): much superior inhibitory activities; also recorded: as good or somewhat better
response to MCF-7 cells in the different drug concentrations (MCF-7 cells): good activities
Drug Inhibition on MCF-7 Cells (MCF-7 cells; 1 μg/ml): 14.55
% Inhibition Mean (MCF-7 cells; [1]): 14.55%
Cells (×10^4) Mean (MCF-7 cells; [1]): 49.42 ×10^4
% Inhibition (MCF-7 cells; [2]): 13.98% and 16.14% and 13.54%
Cells (×10^4) (MCF-7 cells; [2]): 49.8 ×10^4 and 48.5 ×10^4 and 50.0 ×10^4
Drug Inhibition on MCF-7 Cells (MCF-7 cells; 5 μg/ml): 44.09
% Inhibition Mean (MCF-7 cells; [3]): 44.09%
Cells (×10^4) Mean (MCF-7 cells; [3]): 32.33 ×10^4
% Inhibition (MCF-7 cells; [4]): 44.67% and 45.53% and 42.07%
Cells (×10^4) (MCF-7 cells; [4]): 32.0 ×10^4 and 31.5 ×10^4 and 33.5 ×10^4
Drug Inhibition on MCF-7 Cells (MCF-7 cells; 10 μg/ml): 81.99
% Inhibition Mean (MCF-7 cells; [5]): 81.99%
Cells (×10^4) Mean (MCF-7 cells; [5]): 10.42 ×10^4
% Inhibition (MCF-7 cells; [6]): 82.71% and 81.41% and 81.84%
Cells (×10^4) (MCF-7 cells; [6]): 10.0 ×10^4 and 10.8 ×10^4 and 10.5 ×10^4
Drug Inhibition on MCF-7 Cells (MCF-7 cells; 50 μg/ml): 98.70
% Inhibition Mean (MCF-7 cells; [7]): 98.70%
Cells (×10^4) Mean (MCF-7 cells; [7]): 0.75 ×10^4
% Inhibition (MCF-7 cells; [8]): 98.27% and 99.14% and 98.70%
Cells (×10^4) (MCF-7 cells; [8]): 1.0 ×10^4 and 0.5 ×10^4 and 0.8 ×10^4
inhibitory activity compared to AZT (MCF-7 cells; same conditions as AZT): much superior inhibitory activities; also recorded: as good or somewhat better
Drug Inhibition on PC-3 cells (PC-3 cells; 1 μg/ml): 42.4
% Inhibition Mean (PC-3 cells; 1 μg/ml): 25.09%
Cells (×10^4) Mean (PC-3 cells; 1 μg/ml): 73.42 ×10^4
% Inhibition (PC-3 cells; 1 μg/ml): 24.23% and 24.49% and 26.53%
Cells (×10^4) (PC-3 cells; 1 μg/ml): 74.3 ×10^4 and 74.0 ×10^4 and 72.0 ×10^4
Drug Inhibition on PC-3 cells (PC-3 cells; 5 μg/ml): 73.76
% Inhibition Mean (PC-3 cells; 5 μg/ml): 28.57%
Cells (×10^4) Mean (PC-3 cells; 5 μg/ml): 70.00 ×10^4
% Inhibition (PC-3 cells; 5 μg/ml): 29.59% and 29.08% and 27.04%
Cells (×10^4) (PC-3 cells; 5 μg/ml): 69.0 ×10^4 and 69.5 ×10^4 and 71.5 ×10^4
Drug Inhibition on PC-3 cells (PC-3 cells; 10 μg/ml): 87.02
% Inhibition Mean (PC-3 cells; 10 μg/ml): 29.00%
Cells (×10^4) Mean (PC-3 cells; 10 μg/ml): 69.58 ×10^4
% Inhibition (PC-3 cells; 10 μg/ml): 30.61% and 28.57% and 27.81%
Drug Inhibition on PC-3 cells (PC-3 cells; 50 μg/ml): 96.96
% Inhibition Mean (PC-3 cells; 50 μg/ml): 36.65%
Cells (×10^4) Mean (PC-3 cells; 50 μg/ml): 62.08 ×10^4
% Inhibition (PC-3 cells; 50 μg/ml): 31.88% and 33.16% and 45.41%
Cells (×10^4) (PC-3 cells; 50 μg/ml): 67.3 ×10^4 and 65.5 ×10^4 and 53.5 ×10^4
inhibitory activity compared to AZT (PC-3 cells; same conditions as AZT): much superior inhibitory activities; also recorded: as good or somewhat better

COc1cc(C=CC(=O)c2cc(Cl)cc(Cl)c2O)cc(OC)c1OC [CHCl 3M]
Cells (×10^4) Mean (MCF-7 cells; drug 1 μg/ml, mean of replicates): 53.17 ×10^4
% Inhibition Mean (MCF-7 cells; drug 1 μg/ml, mean of replicates, vs 2% DMSO): −4.42%
Cells (×10^4) (MCF-7 cells; drug 1 μg/ml, single replicate count): 54.0 ×10^4 and 54.3 ×10^4 and 51.3 ×10^4
% Inhibition (MCF-7 cells; drug 1 μg/ml, single replicate, vs 2% DMSO): −6.06% and −6.55% and −0.65%
Cells (×10^4) Mean (MCF-7 cells; drug 5 μg/ml, mean of replicates): 52.75 ×10^4
% Inhibition Mean (MCF-7 cells; drug 5 μg/ml, mean of replicates, vs 2% DMSO): −3.6%
Cells (×10^4) (MCF-7 cells; drug 5 μg/ml, single replicate count): 53.8 ×10^4 and 51.5 ×10^4 and 50.0 ×10^4
% Inhibition (MCF-7 cells; drug 5 μg/ml, single replicate, vs 2% DMSO): −5.56% and −1.15% and −4.09%
Cells (×10^4) Mean (MCF-7 cells; drug 10 μg/ml, mean of replicates): 43.75 ×10^4
% Inhibition Mean (MCF-7 cells; drug 10 μg/ml, mean of replicates, vs 2% DMSO): 14.08%
Cells (×10^4) (MCF-7 cells; drug 10 μg/ml, single replicate count): 42.5 ×10^4 and 43.3 ×10^4 and 45.5 ×10^4
% Inhibition (MCF-7 cells; drug 10 μg/ml, single replicate, vs 2% DMSO): 16.53% and 15.06% and 10.64%
Cells (×10^4) Mean (MCF-7 cells; drug 50 μg/ml, mean of replicates): 31.50 ×10^4
% Inhibition Mean (MCF-7 cells; drug 50 μg/ml, mean of replicates, vs 2% DMSO): 38.13%
Cells (×10^4) (MCF-7 cells; drug 50 μg/ml, single replicate count): 32.0 ×10^4 and 32.8 ×10^4 and 29.8 ×10^4
% Inhibition (MCF-7 cells; drug 50 μg/ml, single replicate, vs 2% DMSO): 37.15% and 35.68% and 41.57%
